Results taken from patent US20200341000A1, “METHOD OF SCREENING COMPOUNDS FOR TREATING CNS DISORDERS” (SAGE THERAPEUTICS, INC., priority 2017, published 2020).

Legend:
[1] = system: sIPSCs in DGGCs (mutant mice); assay: Decay time of sIPSCs in DGGCs of mutant mice; assay type: cell-based; settings: 100 nM
Experimental: The ability of 100 nM ALLO to modulate the decay time of sIPSCs was compared in DGGCs from WT and S940A mice as detailed in FIG. 2.

[2] = system: GABA-evoked currents in GT1-7 cells; assay: Patch-clamp of GABA-induced currents in GT1-7 cells, compound in the pipette electrolyte; assay type: cell-based; settings: 100 nM in electrolyte, GABA EC20, 20 min time course
Experimental: Patch-clamp recordings were made from GT1-7 cells. The magnitude of the GABA-induced currents (IGABA) at EC20 agonists concentration were then measured, in the presence of control electrolyte or that supplemented with 100 nM ALLO, or 100 nM ORG OD 02-0 over a time course of 20 min.

[3] = system: phosphorylation of S443 (α4) and S408/9 (β3); assay: Phosphorylation of GABAAR subunits in brain after IP injection; assay type: in vivo, mice; settings: 5 mg/kg IP, 30 min after treatment
Experimental: C57/B16 mice injected with SGE-516 (5 mg/kg IP), or vehicle. 30 min after the treatment mice were sacrificed by microwave irradiation. SDS-soluble hippocampal extracts were then immunoblotted with pS443, α4, pS408/9, or β3 subunit antibodies.

[4] = system: GABAA receptor α4 subunit S443 phosphorylation; assay: Immunoblot of α4 S443 phosphorylation in hippocampal slices; assay type: cell-based, mice; settings: 100 SGE-516 for 5 min
Experimental: Treatment of hippocampal slices with SGE-516 increased the phosphorylation of S408/9 measured using pS408/9 antibodies. To produce antibodies specific for phosphorylated S443, rabbits were injected with a synthetic peptide corresponding to residues […] of the murine α4 subunit in which the serine residue corresponding to S443 was chemically phosphorylated; […]. Hippocampal slices were treated with vehicle (Con), or SGE-516 for 20 min. Slices were immunoblotted with pS408/9, β3, or actin antibodies. The ratio of pS408/9/β3 immunoreactivity was then normalized to control slices (100%=the line).
Affinity purified pS443 was used to immunoblot varying concentrations of the immunizing phosphor-peptide (PP). pS443 was used to immunoblot extracts of hippocampal slices treated without preadsorption (0), preadsorbed with the dephosphorylated (DP), or phosphorylated antigen (PP). […] Moreover, the detection of this band was blocked by the phospho- but not the dephospho-antigen (FIG. 7B).
Hippocampal slices were treated with vehicle (Con) or 100 SGE-516 for 5 min and then immunoblotted with pS443 and α4 antibodies as indicated. pS443 immunoreactivity in hippocampal slices was increased by exposure to SGE-516, while total α4 levels were unaffected (FIG. 7C).

[5] = system: plasma membrane GABAARs containing the α4 and β3 subunits (S408/9A mutant); assay: Biotinylation, surface/total GABAAR subunits in hippocampal slices of S408/9A mice; assay type: cell-based; settings: 100 nM, 20 min
Experimental: Consistent with the examples above, hippocampal slices from WT and S408/9A mice were treated for 20 min with 100 nM SGE-516 or vehicle (Con) and subjected to biotinylation followed by immunoblotting with β3 and α4 subunit antibodies. The ratio of surface/total (S/T) immunoreactivity was then normalized to levels seen in control (100%).

In the case of `CC(=O)[C@H]1CC[C@H]2[C@@H]3CC[C@H]4C[C@H](O)CC[C@]4(C)[C@H]3CC[C@]12C` [ALLO, Allopregnanolone], the “decay time of sIPSCs” value [1] is reported as “did not increase” and the “GABA-evoked currents (IGABA) over time” value [2] is reported as “sustained increases”.
`C[C@@]1(O)CC[C@H]2[C@H](CC[C@@H]3[C@@H]2CC[C@]2(C)[C@@H](C(=O)Cn4nccn4)CC[C@@H]32)C1` [SGE-516] was tested, and the “phosphorylation of S443 and S408/9 in the brains” value [3] was “increased”, the pS443 immunoreactivity [4] was “increased” and the “total α4 levels” value [4] was “unaffected”. The “increase of plasma membrane levels of GABAARs containing α4 and β3 subunits” value [5] was “not seen”.
